# Test results: US20060063794A1, “Method of attenuating graft rejection” (Fujisawa Pharmaceutical Co., Ltd., priority 2004, published 2006)
# Entries after “also recorded” stand apart in the source; their conditions may differ.
# Assays:
# [1] = test system: human kidney transplant recipients; assay: Same trial: safety, adverse events, laboratory values, withdrawals; assay type: in vivo; conditions: for Median serum creatine value: at study end; for Mean hemoglobin level: day 84
# Description: FK778 and placebo were administered in a double-blind manner. […] Patients in arm 2 received one dose of 600 mg/day and continued on 75 mg/day. Subsequent doses were adjusted to maintain trough levels of FK778 in the range of 100-200 μg/mL (arm 1) and 10-100 μg/mL (arm 2). Trough levels of FK778 were centrally determined. Doses of FK778 were adjusted according to the recommendations of an independent panel. Treatment of adults of both genders was studied in a multi-center, randomized, double-blind trial. Three groups were studied. Group H was treated with high dose FK778/tarcolimus/steroids; Group L was treated with low dose FK778/tarcolimus/steroids; and Group P was treated with placebo/Tacrolimus/steroids. Tacrolimus was given as an initial dose of 0.2 mg/kg per os divided into two equal doses, one pre-operatively and one post-operatively. Subsequent doses were adjusted to reach target Tacrolimus whole blood trough concentrations of 10-20 ng/mL on Days 0-30, and 5-15 ng/mL on Days 31-84. Methylprednisolone was perioperatively administered at 1000 mg i.v. or less and 125 mg on Day 1. A prednisolone equivalent was given orally at 20 mg from Day 2-14, at 15 mg on Day 15-28, at 10 mg from Day 29-42 and 5 mg from Day 43-84. Oral tablets of FK778/placebo were administered in a double-blind manner. […] This was the maximum permitted daily dose of FK778. […] Dose adaptations were to be performed from day 7 onwards. Subsequent doses were adjusted to maintain plasma trough levels of FK778 in the target ranges of 100-200 μg/mL (H) and 10-100 μg/mL (L). The primary efficacy endpoint was the incidence of AR proven by local biopsy over the first 12 weeks. […] On a continuous basis safety was assessed by patient and graft survival, adverse event monitoring, routine laboratory evaluations and vital signs. Treatment emergent adverse events were coded according to the MedDRA dictionary (version 5.0). All analyses were based on the full analysis set which included all patients randomised who received at least one dose of FK778/placebo (intent-to-treat principle). Decreasing Kaplan-Meier plots were provided. Pair-wise comparisons of the incidence of adverse events between the treatment groups were made using Fisher's exact test.
# [2] = Same trial: FK778 plasma trough levels; assay type: in vivo, human
# Description: Patients in group H received loading doses of 600 mg/day on Day 1 and 2 and continued on 150 mg/day. This was the maximum permitted daily dose of FK778. Patients in group L received 600 mg/day only on Day 1 and continued on 75 mg/day. Dose adaptations were to be performed from day 7 onwards. Subsequent doses were adjusted to maintain plasma trough levels of FK778 in the target ranges of 100-200 μg/mL (H) and 10-100 μg/mL (L).
# The assay of FK778 trough concentrations were centrally performed in an independent laboratory and an independent unblinded pharmacokinetic (PK)-panel (Covance, UK) used the plasma FK778 levels to make dose adjustments when necessary. In addition, dummy adjustments in the placebo arm were performed. Concentrations were determined initially every other day, from day 14-42 weekly, and afterwards every other week.
# [3] = test system: rat cardiac allografts; conditions: rats, cited from earlier work
# [4] = test system: chronic kidney allograft rejection; conditions: cited from earlier work
# [5] = test system: B-cell proliferation; T cells; conditions: in vitro, FK778 in combination with Tacrolimus (FK506); cited from earlier work
# [6] = test system: renal allograft; conditions: rats, concomitant 14-day regimen FK778 (10/mg/kg/day) and Tacrolimus (1 mg/k/day); cited from earlier work
# [7] = test system: CMV; conditions: animal models; cited from earlier work
smiles,measurement,setting,value
"C#CCC/C(O)=C(\C#N)C(=O)Nc1ccc(C(F)(F)F)cc1 [FK778, (2Z)-2-cyano-3-hydroxy-N-[4-(trifluromethyl)phenyl]-2-hepten-6-ynamide]",Overall assessment of the trial,"[1]; FK778 with Tacrolimus and corticosteroids, renal transplantation","pharmacologically active, well tolerated, and safe; also recorded: pharmacologically active, well tolerated and safe"
same,"Anemias NEC, number of patients",[1]; High level FK778 (group H),21
same,"Angina pectoris, number of patients",[1]; High level FK778 (group H),1
same,Hyperkalemia (%),[1]; High level FK778 (group H),(4.1) %
same,"Hyperkalemia, number of patients",[1]; High level FK778 (group H),2
same,Hypokalemia (%),[1]; High level FK778 (group H),(12.2) %
same,"Hypokalemia, number of patients",[1]; High level FK778 (group H),6
same,Ischemic coronary artery disorders (%),[1]; High level FK778 (group H),(4.1) %
same,"Ischemic coronary artery disorders, number of patients",[1]; High level FK778 (group H),2
same,"Myocard. Ischemia, number of patients",[1]; High level FK778 (group H),1
same,"O. NOS, number of patients",[1]; High level FK778 (group H),1
same,"O. hemorrhagic, number of patients",[1]; High level FK778 (group H),1
same,Oesophagilis (%),[1]; High level FK778 (group H),(8.2) %
same,"Oesophagilis, number of patients",[1]; High level FK778 (group H),4
same,"Reflux O., number of patients",[1]; High level FK778 (group H),2
same,Withdrawn: Adverse event (%),[1]; High level FK778 (group H),(18.4) %
same,"Withdrawn: Adverse event, number of patients",[1]; High level FK778 (group H),9
same,Withdrawn: Death (%),[1]; High level FK778 (group H),(2.0) %
same,"Withdrawn: Death, number of patients",[1]; High level FK778 (group H),1
same,Withdrawn: Graft failure (%),[1]; High level FK778 (group H),(6.1) %
same,"Withdrawn: Graft failure, number of patients",[1]; High level FK778 (group H),3
same,Withdrawn from treatment (%),[1]; High level FK778 (group H) + Tacrolimus/steroids,(28.6) %
same,"Withdrawn from treatment, number of patients","[1]; High level FK778 (group H) + Tacrolimus/steroids, N=49",14
same,"Anemias NEC, number of patients",[1]; Low level FK778 (group L),17
same,"Angina pectoris, number of patients",[1]; Low level FK778 (group L),5
same,Hyperkalemia (%),[1]; Low level FK778 (group L),(11.1) %
same,"Hyperkalemia, number of patients",[1]; Low level FK778 (group L),6
same,Hypokalemia (%),[1]; Low level FK778 (group L),(0.0) %
same,"Hypokalemia, number of patients",[1]; Low level FK778 (group L),0
same,Ischemic coronary artery disorders (%),[1]; Low level FK778 (group L),(13.0) %
same,"Ischemic coronary artery disorders, number of patients",[1]; Low level FK778 (group L),7
same,"Myocard. Infarction, number of patients",[1]; Low level FK778 (group L),1
same,"Myocard. Ischemia, number of patients",[1]; Low level FK778 (group L),1
same,Oesophagilis (%),[1]; Low level FK778 (group L),(0.0) %
same,"Oesophagilis, number of patients",[1]; Low level FK778 (group L),0
same,Withdrawn: Adverse event (%),[1]; Low level FK778 (group L),(13.0) %
same,"Withdrawn: Adverse event, number of patients",[1]; Low level FK778 (group L),7
same,Withdrawn: Graft failure (%),[1]; Low level FK778 (group L),(5.6) %
same,"Withdrawn: Graft failure, number of patients",[1]; Low level FK778 (group L),3
same,Withdrawn from treatment (%),[1]; Low level FK778 (group L) + Tacrolimus/steroids,(25.9) %
same,"Withdrawn from treatment, number of patients","[1]; Low level FK778 (group L) + Tacrolimus/steroids, N=54",14
same,"Withdrawn: Death, number of patients","[1]; Low level FK778 (group L), one patient died the day after withdrawal",0
same,Reversibility of anemia,[1]; after cessation of FK778 treatment,reversible after cessation of FK778 treatment; also recorded: quickly reversed after cessation of FK778 treatment
same,Systolic and diastolic blood pressure values,[1]; both FK778 arms,trend towards lower
same,"Mean total cholesterol and mean LDL-cholesterol levels, lower compared to placebo group","[1]; both FK778 groups, during the treatment phase",~20%
same,Bilirubin levels,[1]; group H,slightly elevated
same,Median serum creatine value,[1]; group H,138 µmol/L
same,Mean hemoglobin level,[1]; group H,102.6 g/L
same,Patients who died during the study,"[1]; group H, high level FK778",one
same,Median serum creatine value,[1]; group L,149 µmol/L
same,Mean hemoglobin level,[1]; group L,119 g/L
same,Patients who died during the study,"[1]; group L, low level FK778",one
same,Liver enzyme values,[1]; throughout the study,no changes
same,Maximum FK778 plasma trough level,"[2]; group H, Day 3",142.4 µg/mL
same,Median FK778 plasma trough level,"[2]; group H, Day 3",84.34 µg/mL
same,Mean FK778 plasma trough level,"[2]; group H, Day 3, after loading doses 600 mg/day on Day 1 and 2",86.97 ± 26.23 µg/mL
same,Mean FK778 plasma trough level,"[2]; group H, Day 7",93.58 µg/mL
same,Mean FK778 plasma trough level,"[2]; group H, Day 28",175.66 µg/mL
same,Median FK778 plasma trough level,"[2]; group L, Day 2",41.35 µg/mL
same,Mean FK778 plasma trough level,"[2]; group L, Day 2, after loading dose 600 mg/day on Day 1",38.30 ± 21.14 µg/mL
same,Mean FK778 plasma trough level,"[2]; group L, Day 11",31.53 ± 21.26 µg/mL
same,Median FK778 plasma trough level,"[2]; group L, Day 11",28.35 µg/mL
same,Mean FK778 plasma trough level,"[2]; group L, Day 42",62.36 ± 27.60 µg/mL
same,Median FK778 plasma trough level,"[2]; group L, Day 42",59.36 µg/mL
same,Prolongation of graft survival,[3]; 20 mg/kg for ten days,about two
same,Median graft survival,[3]; MNA 715 (20/mg/kg) combined with Tacrolimus (2.4 mg/kg) for ten days,19 days
same,Optimal dose,"[4]; rat, given for ten days following transplantation",10 mg/kg/day
same,Effect on chronic kidney allograft rejection,[4]; rats,prevented chronic kidney allograft rejection; also recorded: reduced functional and histologic chronic kidney allograft rejection
same,Effect in T cells,[5],antagonistic tendency
same,Effect on B-cell proliferation,[5],synergistic inhibition of B-cell proliferation
same,Effect on renal allograft survival,[6],synergistically prolonged renal allograft survival
same,Effect on CMV disease,[7],attenuates CMV disease
